The values that follow come from patent publication US10710978B2, “STK4 inhibitors for treatment of hematologic malignancies” (Dana-Farber Cancer Institute, Inc., priority 2015, dated 2020).

One test deals with MST4 (Homo sapiens (Human), UniProt Q9P289). Briefly: Z-lyte biochemical IC50 assay (Invitrogen). Conditions: ATP concentration matched the Km.
Another test deals with BAX. Briefly: Western blotting. Type of test: cell-based. The following applies: H929 cells, 1 μM, 24 hours. From the text: (§1) MM.1S, KMS20 and H929 cells are counted, diluted and plated. Cells are then […] with DMSO or different concentration of a compound of the present application for 6 hrs, 24 hrs or 48 hrs. MM cells are then collected and centrifuged at RT and the pellets are re-suspended in lysis buffer. Cell lysates are subjected to sodium dodecyl sulfate-polyacrylamide gel electrophoresis SDS-PAGE, transferred to nitrocellulose membranes, and immunoblotted with different antibodies.
(§2) MM.1S, KMS20 and H929 cells were counted, diluted and plated in six-well plates to a final concentration of 500,000 cells/well. Cells were then […] with DMSO or different concentration of a compound of the present application for 6 hrs, 24 hrs or 48 hrs. MM cells were then collected and centrifuged for 5 min, 1300 rpm at RT. The pellets were re-suspended in lysis buffer Laemli 1× (Laemli 5×: SDS 10%, DTT 500 mM, Tris-HCl pH6.8 0.4M, BromoFenol Blue, Glycerol 50%). Cell lysates were subjected to sodium dodecyl sulfate-polyacrylamide gel electrophoresis SDS-PAGE, transferred to nitrocellulose membranes, and immunoblotted with different antibodies: YAP1 (#4912), p-YAP1 (S127) (#13008), LATS1 (#9153), p-LATS1 (Thr1079) (#8654), MOB1 (#3863), p-MOB1 (Thr12) (#8843), p-MST1/p-MST2 (Thr183/Thr180) (#3681), p21 (#2947), PARP (#9532), ERK, STAT, and GAPDH (#5174) from Cell Signaling, Beverly, Mass., United States; STK4 (ab57836) (from Abcam, Cambridge, Mass., United States); PUMA (sc-28226), BAX (sc-20067), from Santa Cruz, Dallas, Tex., United States; β-actin from Sigma-Aldrich (St. Louis, Mo., United States). All antibodies were diluted 1:500, except for β-actin antibody (1:50,000 dilution). In FIG. 8, H929 cells were treated with Compound I-9 or DMSO at 1 μM concentration for 24 hours. Lysates were then obtained and immunoblot was performed using antibodies against PARP, YAP1, PUMA, BAX. p21, and GAPDH.
For orientation: In western blotting, separated proteins are transferred to a membrane and probed.

The test system of the next test is p21. Briefly: Western blotting. The format is cell-based. The following applies: H929 cells, 1 μM, 24 hours.
Description: as §1, §2

A further test concerns PUMA. In words: Western blotting. The format is cell-based. Conditions: H929 cells, 1 μM, 24 hours.
Description: as §1, §2

A further test relates to PARP. In words: Western blotting. The following applies: H929 cells, 1 μM, 24 hours. Type of test: cell-based.
Description: as §1, §2

For a further test, the system named is MM.1S cells. Briefly: MTT cell growth assay with stromal cell supernatant. Type of test: cell-based, human. The following applies: 72 hours; for growth inhibitory effect of Lenalidomide/Pomalidomide in combination: in the presence of stromal cell supernatant. The method, then: FIG. 29 is a graph showing cell growth of MM.1S cells treated for 72 hours with Compound I-50 or I-51 alone or in combination with stromal cell supernatant in an MTT assay in triplicate.
FIG. 30 is a graph showing cell growth of MM.1S cells treated for 72 hours with Lenalidomide/Pomalidomide in the presence of stromal cell supernatant alone or in combination with Compound I-50 in an MTT assay in triplicate.
FIG. 31 is a graph showing cell growth of MM.1S cells treated for 72 hours with Lenalidomide/Pomalidomide in the presence of stromal cell supernatant alone or in combination with Compound I-51 in an MTT assay in triplicate.
MM. 1S, KMS20, H929 MM cells, RPMI/8226, OPM-2 and U266 were counted and diluted to a final concentration of 400,000 cells/mL. The cell were plated in 96-well plates and mixed with an equal volume of culture media containing DMSO or increasing concentration of a compound of the present application diluted in DMSO (the final DMSO concentration is equal between all tested samples), using a STARlet Robot (Hamiltonrobotics, Reno, Nev., United States). Cells with increasing concentration of compound of the present application and DMSO were […] at different time points (24 hrs to 72 hrs). Viability was assessed by MTT or Cell Titer 96® AQueous One Solution cell proliferation assay (Promega). Specifically, for the MTT assay, the 3-[4,5 dimethylthiazol-2-yl]-2,5 diphenyltetrazolium bromide-MTT (Sigma-Aldrich, St. Louis, Mo., Unites States) colorimetric survival assay was used. At the various time points (24-72 hrs), 10 μL of 5 mg/mL MTT were added to cells. After 4 hrs incubation at 37° C., medium was discarded and 100 μL MTT stop solution (DMSO or Isopropanol with 1 N HCl) was used to dissolve MTT metabolic products. Absorbance was read at 570/630 nm. For the Promega assay, at the various time points, 20 μL of Cell Titer solution is added to the cells. After 4 hrs of incubation at 37° C. absorbance was read at […].
Background: Tetrazolium dyes change colour on reduction, which living cells bring about.

The target in another test is ITPK1 (Homo sapiens (Human), UniProt Q13572). Briefly: KiNativ assay. The format is binding. Conditions: H929 live cell, range class. The method, then:
Biochemical IC50s of the compounds of the present disclosure against various kinases were measured in a KiNativ assay. Compounds were screened in duplicate at 10 μM in H929 live cell. IC50 was measured via Mass spectroscopy (MS).

The term IC50 denotes the point on the concentration scale where inhibition reaches its midpoint. As a reminder, the inhibition is how much of the control response was suppressed.

ITPK1, sequence (Q13572 whole entry): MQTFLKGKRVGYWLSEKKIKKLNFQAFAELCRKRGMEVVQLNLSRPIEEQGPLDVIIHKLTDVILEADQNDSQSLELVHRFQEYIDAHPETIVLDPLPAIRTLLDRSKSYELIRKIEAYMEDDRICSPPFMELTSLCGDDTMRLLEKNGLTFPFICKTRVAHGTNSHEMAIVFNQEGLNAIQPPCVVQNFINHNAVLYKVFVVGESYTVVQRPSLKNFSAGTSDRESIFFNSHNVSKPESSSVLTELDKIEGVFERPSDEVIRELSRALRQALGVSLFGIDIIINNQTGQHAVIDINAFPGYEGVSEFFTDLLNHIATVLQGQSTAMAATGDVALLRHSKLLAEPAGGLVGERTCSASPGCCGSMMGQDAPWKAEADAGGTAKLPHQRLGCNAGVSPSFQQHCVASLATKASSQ
MST4, sequence (Q9P289 whole entry): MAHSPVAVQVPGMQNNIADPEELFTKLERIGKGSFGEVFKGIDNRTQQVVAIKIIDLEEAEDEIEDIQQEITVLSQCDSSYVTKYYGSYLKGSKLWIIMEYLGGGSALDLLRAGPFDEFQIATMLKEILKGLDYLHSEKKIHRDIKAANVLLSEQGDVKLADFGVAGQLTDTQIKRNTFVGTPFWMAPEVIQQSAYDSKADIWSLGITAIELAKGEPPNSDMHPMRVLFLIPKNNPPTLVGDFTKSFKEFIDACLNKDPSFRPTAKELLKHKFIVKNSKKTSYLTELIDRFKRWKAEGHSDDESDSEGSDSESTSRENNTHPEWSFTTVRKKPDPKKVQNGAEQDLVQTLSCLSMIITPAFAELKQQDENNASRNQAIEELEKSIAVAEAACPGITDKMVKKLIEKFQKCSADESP

The compound `Nc1ncc(-c2cc([N+](=O)[O-])ccc2F)cc1-c1ccc2c(c1)CCNC2=O` [Compound I-1, 6-(2-amino-5-(2-fluoro-5-nitrophenyl)pyridin-3-yl)-3,4-dihydroisoquinolin-1(2H)-one] registered an IC50 at MST4 of over 900 nM.
With `Nc1ncc(-c2cccc([N+](=O)[O-])c2F)cc1-c1ccc2c(c1)CCNC2=O` [Compound I-9, 6-(2-amino-5-(2-fluoro-3-nitrophenyl)pyridin-3-yl)-3,4-dihydroisoquinolin-1(2H)-one], in the test on BAX, the “protein levels of BAX” value was “upregulation”. In the test on p21, the “protein levels of p21” value was “upregulation”. In the test with PUMA, the “protein levels of PUMA” value is on record as “upregulation”. Besides, in the test on PARP, the PARP cleavage result is recorded as “induction of PARP cleavage”.
For the compound `COc1cc(NS(=O)(=O)C2CC2)ccc1-c1cnc(N)c(-c2ccc3c(c2)CCNC3=O)c1` [Compound I-50, N-(4-(6-amino-5-(1-oxo-1,2,3,4-tetrahydroisoquinolin-6-yl)pyridin-3-yl)-3-methoxyphenyl) cyclopropanesulfonamide], in the test on MM.1S cells, the “susceptibility of cells on co-culture with stromal cell supernatant (cell growth, MTT)” value is listed as “enhanced the susceptibility” and the “growth inhibitory effect of Lenalidomide/Pomalidomide in combination” value is “enhanced the growth inhibitory effect”.
On to `Nc1ncc(-c2ccc(NS(=O)(=O)C3CC3)cc2F)cc1-c1ccc2c(c1)CCNC2=O` [Compound I-51, N-(4-(6-amino-5-(1-oxo-1,2,3,4-tetrahydroisoquinolin-6-yl)pyridin-3-yl)-3-fluorophenyl) cyclopropanesulfonamide], for which, in the test with MM.1S cells, the “susceptibility of cells on co-culture with stromal cell supernatant (cell growth, MTT)” value was “enhanced the susceptibility” and the “growth inhibitory effect of Lenalidomide/Pomalidomide in combination” value was “enhanced the growth inhibitory effect”.
As for `Nc1ncc(-c2ccc(NS(=O)(=O)C3CC3)cc2OC2CCCCC2)cc1-c1ccc2c(c1)CCNC2=O` [Compound I-65, N-(4-(6-amino-5-(1-oxo-1,2,3,4-tetrahydroisoquinolin-6-yl)pyridin-3-yl)-3-(cyclohexyloxy)phenyl) cyclopropanesulfonamide], the inhibition at 10 µM against ITPK1 is over 100%.
